One test deals with T1, MGL (Rattus norvegicus, UniProt Q8R431).
T1 construct: one g rat brain was homogenized
T1 sequence (Q8R431 1-303): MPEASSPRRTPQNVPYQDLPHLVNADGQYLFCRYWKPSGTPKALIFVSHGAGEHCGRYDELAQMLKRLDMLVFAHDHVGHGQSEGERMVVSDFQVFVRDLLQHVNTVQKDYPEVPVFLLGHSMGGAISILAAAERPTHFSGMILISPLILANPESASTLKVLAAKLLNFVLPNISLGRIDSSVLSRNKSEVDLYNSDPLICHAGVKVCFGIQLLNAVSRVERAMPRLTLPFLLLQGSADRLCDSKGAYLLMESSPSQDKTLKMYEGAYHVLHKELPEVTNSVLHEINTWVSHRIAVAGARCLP
Nature of the test: 2-AG Accumulation Assay (rat brain homogenate). The test is classed as biochemical. Particulars: compound 1 μM, percent of vehicle 2-AG accumulation.

Test [1] deals with CFA-induced thermal hypersensitivity. Nature of the test: CFA-Induced Paw Radiant Heat Hypersensitivity. The test is classed as in vivo. Particulars: rat, 30 mg/kg p.o., HPβCD vehicle; for Method 1: peak % reversal: group mean values, maximum at any time point up to 180 or 300 min. How it is done: A radiant thermal stimulus (beam of light) was then focused through the glass onto the plantar surface of each hind paw in turn. […] An initial (baseline) response latency to the thermal stimulus was recorded for each animal prior to the injection of complete Freund's adjuvant (CFA). 24 h following intraplantar CFA injection, the response latency of the animal to the thermal stimulus was then re-evaluated and compared to the animal's baseline response time. […] Immediately following the post-CFA latency assessment, the indicated test compound or vehicle was administered orally. […] More specifically: For all compounds, the % R of hypersensitivity was calculated using the mean value for groups of animals at each time point according to the following formula: % reversal=[(group treatment response−group CFA response)/(group baseline response−group CFA response)]×100 Results are given for the maximum % reversal observed for each compound at any time point tested. For some compounds, the % R of hypersensitivity was calculated separately for each animal according to the following formula: % reversal=[(individual treatment response−individual CFA response)/(individual baseline response−individual CFA response)]×100. Results are given as a mean of the maximum % reversal values calculated for each individual animal.

Test [2] has as its target T2, purified wild type MGL (wt-MGLL 6H-11-313) (Homo sapiens, UniProt Q99685).
T2 sequence (Q99685 1-303): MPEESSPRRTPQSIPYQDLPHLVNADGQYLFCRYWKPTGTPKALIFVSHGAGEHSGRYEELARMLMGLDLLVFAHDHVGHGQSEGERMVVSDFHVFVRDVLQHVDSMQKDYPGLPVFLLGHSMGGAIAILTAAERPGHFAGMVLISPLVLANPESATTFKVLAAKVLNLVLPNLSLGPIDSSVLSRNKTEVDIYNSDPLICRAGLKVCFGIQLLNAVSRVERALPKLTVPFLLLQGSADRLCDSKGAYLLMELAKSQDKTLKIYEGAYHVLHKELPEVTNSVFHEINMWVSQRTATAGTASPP

For another test, the target named is T3, mutant MGL (Homo sapiens, UniProt Q99685, L169S/L176S).
T3 sequence (Q99685 1-303 L169S/L176S): T2 sequence (Q99685 1-303) with L169S, L176S
Nature of the test: MGL ThermoFluor Assay-Mutant.

[3] abbreviates: read-out: MGL wild type inh IC50, substrate 4MU-B 10 μM, 37° C.
The mark [4] stands for this setting: read-out: MGL mutant ThermoFluor Kd, ThermoFluor thermal stability binding assay.
The mark [5] stands for this setting: read-out: MGL mutant ThermoFluor qKd (μM) (using qNMR conc.), ThermoFluor, compound concentration measured by qNMR.
The mark [6] stands for this setting: read-out: MGL wild type inh IC50, 4MU-B substrate 10 μM, 37° C.
Where [7] appears, read: read-out: MGL wild type inh IC50, substrate 4MU-B 10 μM, enzyme 5 nM, 37° C.
Setting [8] is: read-out: MGL mutant ThermoFluor qKd (μM) (using qNMR conc.), compound concentration measured by quantitative NMR (qNMR).
[9] abbreviates: read-out: MGL mutant ThermoFluor Kd, 0.07 mg/ml, fit of concentration-response of Tm.

This note sets out measurements from patent US8697683B2, “Azetidinyl diamides as monoacylglycerol lipase inhibitors” (Janssen Pharmaceutica, NV, priority 2009, dated 2014).

Numbering of substitutions follows the chain as printed. Read-outs that look alike come from different tables or passages of the source.

Experimental for mutant MGL: The ThermoFluor (TF) assay is a 384-well plate-based binding assay that measures thermal stability of proteins^1,2. […] TF dye used in all experiments was 1,8-ANS (Invitrogen: A-47). Final TF assay conditions used for MGL studies were 0.07 mg/ml of mutant MGL, 100 μM ANS, 200 mM NaCl, 0.001% Tween-20 in 50 mM PIPES (pH=7.0).
Screening compound plates contained 100% DMSO compound solutions at a single concentration. […] Columns 12 and 24 were used as DMSO reference and contained no compound. […] Following compound dispension, protein and dye solutions were added to achieve the final assay volume of 3 μL.
Bar-coded assay plates were robotically loaded onto a thermostatically controlled PCR-type thermal block and then heated from 40 to 90° C. degrees at a ramp-rate of 1° C./min for all experiments. Fluorescence was measured by continuous illumination with UV light (Hamamatsu LC6), supplied via fiber optics and filtered through a band-pass filter (380-400 nm; >60D cutoff). Fluorescence emission of the entire 384-well plate was detected by measuring light intensity using a CCD camera (Sensys, Roper Scientific) filtered to detect 500±25 nm, resulting in simultaneous and independent readings of all 384 wells. A single image with 20-sec exposure time was collected at each temperature, and the sum of the pixel intensity in a given area of the assay plate was recorded vs temperature and fit to standard equations to yield the Tm^1. • 1.
For some experiments, quantitative NMR spectroscopy (qNMR) was used to measure concentration of the initial 100% DMSO compound solutions and, using the same fitting method, qKd values were determined

What is called IC50 is the concentration that inhibits the measured activity by half. As for “5-[2-(4-Chlorophenyl)-1-methyl-vinyl]-1-(2,4-dichloro-phenyl)-4-methyl-1H-pyrazole-3-carboxylic acid [Cpd 1010]”, at MGL, the “Rat Brain 2AG % VehCntrl (%) @1 μM” value is given as 1953%. In addition, the “Method 1: peak % reversal” value in test [1] worked out at 23.4%. The IC50 in test [2] (setting [3]) is less than 0.005 µM. Further, the Kd turned out to be 0.017 µM at mutant MGL (setting [4]) and 0.04 µM on mutant MGL (setting [5]).

In the case of `O=C(c1ccccc1)N1CCN(C2CN(C(=O)c3ccc(Oc4cccc(F)n4)cc3)C2)CC1` [Cpd 522], in test [2] (setting [6]), the half-maximal inhibitory concentration (IC50) turned out to be 2.68 µM. Moreover, the Kd at mutant MGL (setting [4]) was determined as 4.71 µM.

Turning to `O=C(c1ccccc1)N1CC(N2CCN(C(=O)c3cc4cc(Cl)ccc4o3)CC2)C1` [Cpd 524], the half-inhibitory concentration (IC50) in test [2] (setting [3]) is 4.37 µM. Also, on mutant MGL (setting [4]), the Kd was 1.67 µM.

`COc1cncc(Oc2ccc(C(=O)N3CC(N4CCN(C(=O)c5ccccc5)CC4)C3)cc2)c1` [Cpd 533]: the Kd on mutant MGL (setting [4]) came out at 10 µM.

Turning to `O=C(c1ccccc1)N1CCN(C2CN(C(=O)c3ccc4c(c3)c(F)cn4-c3ccccc3)C2)CC1` [Cpd 589], the IC50 in test [2] (setting [3]) worked out at 0.146 µM.

Turning to `O=C(c1ccccc1)N1CCN(C2CN(C(=O)c3ccc4c(ccn4-c4ccccc4)c3F)C2)CC1` [Cpd 632], in test [2] (setting [3]), the IC50 came to 0.281 µM. The Kd at mutant MGL (setting [5]) was found to be 0.037 µM.

Take `Cc1sc(C(=O)N2CC(N3CCN(C(=O)c4nccs4)CC3)C2)cc1Br` [Cpd 745]: the IC50 in test [2] (setting [7]) was found to be 0.342 µM. For the same compound, the Kd at mutant MGL (setting [8]) was 0.283 µM.

Take `Cc1c(C(=O)N2CCN(C3CN(C(=O)c4nccs4)C3)CC2)n(C)c2ccc(Cl)cc12` [Cpd 762]: in test [2] (setting [3]), the IC50 was 0.632 µM. The Kd at mutant MGL (setting [5]) was found to be 1 µM.

Take `O=C(c1ccc(Oc2cccc(Cl)c2)nc1)N1CC(N2CCN(C(=O)c3cscn3)CC2)C1` [Cpd 803]: in test [2] (setting [3]), the IC50 was 1.87 µM. Moreover, the Kd at mutant MGL (setting [4]) is 2.13 µM.

On to `O=C(c1nccs1)N1CCN(C2CN(C(=O)c3cccc4c3CN(c3ccccc3)CC4)C2)CC1` [Cpd 805], for which the IC50 in test [2] (setting [6]) came out at 2 µM. For the same compound, on mutant MGL (setting [9]), the Kd was 6.41 µM.

With `O=C(c1cc2cc(Br)ccc2o1)N1CC(N2CCN(C(=O)c3nccs3)CC2)C1` [Cpd 812], the half-maximal inhibitory concentration (IC50) in test [2] (setting [7]) is 2.19 µM. Further, at mutant MGL (setting [9]), the Kd turned out to be 0.644 µM.

As for `Cc1cc2nc(C(=O)N3CC(N4CCN(C(=O)c5nccs5)CC4)C3)cn2cc1Br` [Cpd 852], the IC50 in test [2] (setting [7]) was 8.08 µM. For the same compound, the Kd at mutant MGL (setting [5]) came out at 1.98 µM.

In the case of `O=C(c1ccc(SCc2cccc(C(F)(F)F)c2)cc1)N1CC(N2CCN(C(=O)c3cscn3)CC2)C1` [Cpd 975], the IC50 in test [2] (setting [6]) is 0.162 µM. In addition, at mutant MGL (setting [4]), the Kd worked out at 2 µM.

For `O=C(c1ccc(OCc2cccc(Br)n2)cc1)N1CC(N2CCN(C(=O)C(F)(F)F)CC2)C1` [Cpd 984], the IC50 in test [2] (setting [6]) stood at 2.5 µM. On mutant MGL (setting [5]), the Kd came to 1.43 µM.

Regarding `O=C(c1ccc(-c2cccc(C(F)(F)F)c2)c(Cl)c1)N1CC(N2CCN(C(=O)c3cscn3)CC2)C1` [Cpd 1102], the “Rat Brain 2AG % VehCntrl (%) @1 μM” value on MGL turned out to be 878%. Moreover, the “Method 1: peak % reversal” value in test [1] was 38%. Besides, the “Method 2: peak % reversal” value in test [1] (mean of individual animal maximum values, up to 180 or 300 min) amounted to 45.3%. Further, on mutant MGL (setting [9]), the Kd stood at 0.006 µM.

Take `Cn1nccc1-c1ccc2cc(C(=O)N3CC(N4CCN(C(=O)c5nccs5)CC4)C3)[nH]c2c1` [Cpd 1241]: the IC50 in test [2] (setting [6]) came out at 0.46 µM. Further, the Kd on mutant MGL (setting [8]) was 0.638 µM.

As to `COc1ccc(-c2cccc(C(=O)N3CC(N4CCN(C(=O)c5cscn5)CC4)C3)c2)cc1` [Cpd 1250], the half-maximal inhibitory concentration (IC50) in test [2] (setting [3]) stood at 0.638 µM. Further, on mutant MGL (setting [4]), the Kd was found to be 2 µM.

`O=C(c1nccs1)N1CCN(C2CN(C(=O)c3cccc4nc(-c5ccccc5)[nH]c34)C2)CC1` [Cpd 1255]: the “Rat Brain 2AG % VehCntrl (%) @1 μM” value at MGL was 147%. Besides, the half-maximal inhibitory concentration (IC50) in test [2] (setting [6]) is 0.769 µM. In addition, the Kd at mutant MGL (setting [9]) is 0.048 µM.

As to `O=C(c1nccs1)N1CCN(C2CN(C(=O)c3nn(-c4ccc(Cl)cc4Cl)c4c3CCCC4)C2)CC1` [Cpd 1267], the IC50 in test [2] (setting [3]) stood at 1.12 µM. Also, on mutant MGL (setting [5]), the Kd stood at 0.741 µM.

For `O=C(c1nc2cc(-c3ccc(OC(F)(F)F)cc3)ccc2[nH]1)N1CC(N2CCN(C(=O)c3nccs3)CC2)C1` [Cpd 1303], in test [2] (setting [6]), the IC50 came out at 5.11 µM. The Kd on mutant MGL (setting [8]) turned out to be 7.12 µM.

Consider `O=C(c1ccc(-c2ccc(Cl)cc2)[nH]1)N1CC(N2CCN(C(=O)c3nccs3)CC2)C1` [Cpd 1307], for which, in test [2] (setting [7]), the IC50 amounted to 8.78 µM. Also, the Kd at mutant MGL (setting [4]) amounted to 4.21 µM.

On to `O=C(c1ccc[nH]1)N1CCN(C2CN(C(=O)c3nn(-c4ccc(Cl)cc4Cl)c4c3CCCC4)C2)CC1` [Cpd 1309], for which, in test [2] (setting [3]), the half-inhibitory concentration (IC50) came out at 9.36 µM. In addition, the Kd on mutant MGL (setting [5]) is 6.54 µM.

As for `O=C(c1ccc2c(ccn2-c2ccc(C(F)(F)F)cc2)c1)N1CC(N2CCN(C(=O)c3nccs3)CC2)C1` [Cpd 1357, 5-({3-[4-(1,3-Thiazol-2-ylcarbonyl)piperazin-1-yl]azetidin-1-yl}carbonyl)-1-[4-(trifluoromethyl)phenyl]-1H-indole], the “Rat Brain 2AG % VehCntrl (%) @1 μM” value at MGL stood at 2570%.

As for `O=C(c1ccc2c(ccn2-c2ccc(F)cc2)c1)N1CC(N2CCN(C(=O)c3cscn3)CC2)C1` [Cpd 1358, 1-(4-Fluorophenyl)-5-({3-[4-(1,3-thiazol-4-ylcarbonyl)piperazin-1-yl]azetidin-1-yl}carbonyl)-1H-indole], the “Rat Brain 2AG % VehCntrl (%) @1 μM” value on MGL came to 1183%.

`O=C(c1ccc2c(ccn2-c2ccc(C(F)(F)F)cc2)c1)N1CC(N2CCN(C(=O)c3cscn3)CC2)C1` [Cpd 1359, 5-({3-[4-(1,3-Thiazol-4-ylcarbonyl)piperazin-1-yl]azetidin-1-yl}carbonyl)-1-[4-(trifluoromethyl)phenyl]-1H-indole]: at MGL, the “Rat Brain 2AG % VehCntrl (%) @1 μM” value was determined as 1016%.

Turning to `Cc1nc(-c2cccc(C(F)(F)F)c2)sc1C(=O)N1CC(N2CCN(C(=O)c3nccs3)CC2)C1` [Cpd 1407, 1-[1-({4-Methyl-2-[3-(trifluoromethyl)phenyl]-1,3-thiazol-5-yl}carbonyl)azetidin-3-yl]-4-(1,3-thiazol-2-ylcarbonyl)piperazine], on MGL, the “Rat Brain 2AG % VehCntrl (%) @1 μM” value was 1287%.

In the case of `O=C(c1ccc2c(ccn2-c2cccc(C(F)(F)F)c2)c1)N1CC(N2CCN(C(=O)c3cscn3)CC2)C1` [Cpd 1408, 5-({3-[4-(1,3-Thiazol-4-ylcarbonyl)piperazin-1-yl]azetidin-1-yl}carbonyl)-1-[3-(trifluoromethyl)phenyl]-1H-indole], the “Rat Brain 2AG % VehCntrl (%) @1 μM” value at MGL stood at 1475%.

Take `O=C(c1cn2cc(Cl)cc(Br)c2n1)N1CC(N2CCN(C(=O)c3nccs3)CC2)C1` [Cpd 1452]: in test [2] (setting [7]), the IC50 was more than 16.7 µM. The Kd at mutant MGL (setting [8]) was determined as 5.42 µM.

Consider `O=C(c1nccs1)N1CCN(C2CN(C(=O)c3c[nH]nc3-c3ccccc3)C2)CC1` [Cpd 1475], for which the 50% inhibitory concentration (IC50) in test [2] (setting [7]) was more than 16.7 µM. Moreover, the Kd at mutant MGL (setting [9]) is more than 31.2 µM.

As to `O=C(c1ccccc1)N1CCN(C2CN(C(=O)c3cc4cc(Br)ccc4o3)C2)CC1` [Cpd 1492], the IC50 in test [2] (setting [7]) is more than 16.7 µM. The Kd at mutant MGL (setting [9]) amounted to 18.8 µM.

Consider `O=C(c1ccc(-c2ccccc2)cc1)N1CC(N2CCN(C(=O)c3ccccc3)CC23CC3)C1` [Cpd 1499], for which, in test [2] (setting [7]), the IC50 was more than 16.7 µM.
